In this assay the target is T1, acetylcholine muscarinic M1 receptor (Homo sapiens, UniProt P11229).
T1 construct: expressed in transfected cells; host or cells: CHOnfat cells (CHO with NFAT reporter background) stably expressing hM1, Geneticin selection
T1 sequence (P11229 1-460): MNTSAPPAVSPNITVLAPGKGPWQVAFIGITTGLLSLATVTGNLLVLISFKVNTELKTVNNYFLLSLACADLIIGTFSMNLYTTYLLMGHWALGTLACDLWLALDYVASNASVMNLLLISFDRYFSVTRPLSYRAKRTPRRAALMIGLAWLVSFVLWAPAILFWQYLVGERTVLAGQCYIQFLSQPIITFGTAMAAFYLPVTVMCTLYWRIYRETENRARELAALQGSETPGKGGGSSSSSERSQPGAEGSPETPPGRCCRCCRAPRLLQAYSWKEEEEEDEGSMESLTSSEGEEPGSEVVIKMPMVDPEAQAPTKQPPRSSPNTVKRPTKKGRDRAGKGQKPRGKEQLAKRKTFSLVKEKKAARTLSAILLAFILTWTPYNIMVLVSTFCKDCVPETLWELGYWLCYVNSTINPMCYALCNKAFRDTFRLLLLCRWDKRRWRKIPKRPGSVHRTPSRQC
Briefly: muscarinic FLIPR assay: intracellular calcium in CHOnfat/hM1 cells, potentiation of EC20 acetylcholine. The assay is classed as cell-based. The settings on record: FLIPR Ca2+, 4 min preincubation, then EC20 acetylcholine (3 nM final), read-out: IP Value (inflection point). The procedure:
The assay studies the effect of one or several concentrations of test compounds on basal or acetylcholine-stimulated Ca^2+ levels using FLIPR.
Compounds are prepared and subjected to a preincubation period of 4 min. Thereafter, a single EC20 concentration of acetylcholine is added to each well (3 nM final). The intracellular Ca^2+ level of each sample is measured and compared to an acetylcholine control to determine any modulatory activity.
Cells: CHOnfat/hM1, hM2, hM3 or hM4 cells are plated 24 hr before the assay at a density of 18,000 cells/well (100 μL) in a 384 well plate. CHOnfat/hM1 and CHOnfat/hM3 Growth Medium: 90% DMEM (Hi Glucose); 10% HI FBS; 2 mM L-glutamine; 0.1 mM NEAA; Pen-Strep; and 1 mg/ml Geneticin, are added. For M2Gqi5CHOnfat and M4Gqi5CHOnfat cells, an additional 600 ug/ml hygromycin is added.
Equipment: 384 well plate, 120 μL addition plate; 96-well Whatman 2 ml Uniplate Incubator, 37° C., 5% CO2; Skatron EMBLA-384 Plate Washer; Multimek Pipetting System; Genesis Freedom 200 System; Mosquito System; Temo Nanoliter Pipetting System; and FLIPR384 Fluorometric Imaging Plate Reader System are used.
Buffers. Assay Buffer: Hanks Balanced Salt Solution, with 20 mM Hepes, 2.5 mM Probenecid (Sigma P-8761) first dissolved in 1 N NaOH, 1% Bovine Serum Albumin (Sigma A-9647). Dye Loading Buffer: Assay Buffer plus 1% Fetal Bovine Serum and Fluo-4AM/Pluronic Acid Mixture. 2 mM Fluo-4AM ester stock in DMSO (Molecular Probes F-14202) Concentration of 2 μM in buffer for a final concentration of 1 μM in Assay. 20% Pluronic Acid Solution stock, with concentration of 0.04% in Buffer, 0.02% in Assay.
65 μl, of 2 mM Fluo-4AM are mixed with 130 μL of 20% Pluronic Acid. The resulting solution and 650 μL FBS is added to the assay buffer for a total volume of 65 mL. Positive Controls: 4-Br-A23187: 10 mM in DMSO; final concentration 10 μM. Acetylcholine: 10 mM in water, working stock at both 20 μM and 30 μM in assay buffer, final concentration of 10 μM. This is used to check the maximum stimulation of the CHOK1/hM1 cells. 20 μM (2×) acetylcholine is added in the preincubation part of the assay, and the 30 μM (3×) stock is added in the second part. (EC20)Acetylcholine: 10 mM in water, working stock of 9 nM (3×), and final concentration in assay is 3 nM. This is used after the preincubation with test compounds. Addition of the EC20 Acetylcholine to each well with a test compound will ascertain any modulator activity. 24 wells contain 3 nM Acetylcholine alone as a control.
Determining Activity of Putative Compounds:
Screening Plate: Compounds are titrated in 96-well plates (columns 2-11), 100% DMSO, started at a concentration of 15 mM (150× stock concentration), and 3-fold serial dilutions using Genesis Freedom200 System. Four 96-well plates are combined into a 384-well plate using Mosquito Nanoliter Pipetting System by transferring 1 μl of serial diluted compounds to each well, and 1 mM acetylcholine (100× stock concentration) were added as a control. Using Temo, 49 μl assay buffer is added to each well of the 384-well plate right before assay.
In a 96-well Whatman 2 ml Uniplate, 9 nM Acetylcholine (3×) is pipetted into wells corresponding to the screening compounds, and into control wells. The 30 μM acetylcholine control (3×) is added into control wells, and the 3× agonist plate is transferred into a 384 well plate.
Cells are washed three times with 100 μL of buffer, leaving 30 μL of buffer in each well. Using Multimek, 30 μl, of Dye Loading Buffer is added into each well and incubated at 37° C., 5% CO2 for up to one hr.
After […], the cells are washed three times with 100 μL of buffer, leaving 30 μL of buffer in each well. The cell plate, screening plate, and agonist addition plates are placed on the platform in the FLIPR and the door closed. A signal test to check background fluorescence and basal fluorescence signal is performed. Laser intensity is adjusted if necessary. […]
(A change in cytosolic calcium serves as a functional read-out for many receptors and channels.)

The values that follow come from patent publication US8940765B2, “N-linked quinolineamide M1 receptor positive allosteric modulators” (Merck Sharp & Dohme Corp., priority 2011, dated 2015).

In the case of `N#CC1(c2ccccn2)CCN(Cc2cc(C(=O)N[C@H]3CCCC[C@@H]3O)nc3ccccc23)CC1` [Example 1, 4-[(4-cyano-4-pyridin-2-ylpiperidin-1-yl)methyl]-N-[(1S,2S)-2-hydroxycyclohexyl]quinoline-2-carboxamide], the EC50 was 54 nM.

Regarding `Cn1cc(N2CCN(Cc3cc(C(=O)N[C@H]4CCCC[C@@H]4O)nc4ccccc34)CC2)cn1` [Example 2, N-[(1S,2S)-2-hydroxycyclohexyl]-4-{[4-(1-methyl-1H-pyrazol-4-yl)piperazin-1-yl]methyl}quinoline-2-carboxamide], the EC50 was 369 nM.

Consider `Cc1ccnc(C2(C#N)CCN(Cc3cc(C(=O)N[C@H]4CCCC[C@@H]4O)nc4ccccc34)CC2)c1` [Example 3, 4-{[4-cyano-4-(4-methylpyridin-2-yl)piperidin-1-yl]methyl}-N-[(1S,2S)-2-hydroxycyclohexyl]quinoline-2-carboxamide], for which the EC50 is 20 nM.

On to `N#CC1(c2ccccc2)CCN(Cc2cc(C(=O)N[C@H]3CCCC[C@@H]3O)nc3ccccc23)CC1` [Example 4, 4-[(4-cyano-4-phenylpiperidin-1-yl)methyl]-N-[(1S,2S)-2-hydroxycyclohexyl]quinoline-2-carboxamide], for which the EC50 stood at 325 nM.

On to `N#CC1(c2ccccc2F)CCN(Cc2cc(C(=O)N[C@H]3CCCC[C@@H]3O)nc3ccccc23)CC1` [Example 5, 4-{[4-cyano-4-(2-fluorophenyl)piperidin-1-yl]methyl}-N-[(1S,2S)-2-hydroxycyclohexyl]quinoline-2-carboxamide], for which the EC50 was determined as 81 nM.

With `N#CC1(c2ccccc2Cl)CCN(Cc2cc(C(=O)N[C@H]3CCCC[C@@H]3O)nc3ccccc23)CC1` [Example 6, 4-{[4-(2-chlorophenyl)-4-cyanopiperidin-1-yl]methyl}-N-[(1S,2S)-2-hydroxycyclohexyl]quinoline-2-carboxamide], the EC50 stood at 117 nM.

`Cc1ccccc1C1(C#N)CCN(Cc2cc(C(=O)N[C@H]3CCCC[C@@H]3O)nc3ccccc23)CC1` [Example 7, 4-{[4-cyano-4-(2-methylphenyl)piperidin-1-yl]methyl}-N-[(1S,2S)-2-hydroxycyclohexyl]quinoline-2-carboxamide]: the EC50 was 136 nM.

For `Cc1ccnc(C2(C#N)CCN(Cc3cc(C(=O)N[C@H]4CCOC[C@@H]4O)nc4ccccc34)CC2)c1` [Example 8, 1,5-anhydro-3-{[(4-{[4-cyano-4-(4-methylpyridin-2-yl)piperidin-1-yl]methyl}quinolin-2-yl)carbonyl]amino}-2,3-dideoxy-L-threo-pentitol], the EC50 stood at 27 nM.

As to `N#CC1(c2cccnc2)CCN(Cc2cc(C(=O)N[C@H]3CCCC[C@@H]3O)nc3ccccc23)CC1` [Example 9, 4-[(4-cyano-4-pyridin-3-ylpiperidin-1-yl)methyl]-N-[(1S,2S)-2-hydroxycyclohexyl]quinoline-2-carboxamide], the EC50 was determined as 54 nM.
